13 compounds from paper PMC9352230 (ACS Omega, 2022) can be followed below.

In general, IC50 refers to the concentration that inhibits the measured activity by half. Lower therefore signals greater potency. In general, inhibition refers to the share of the control response that was lost under treatment.

Experiment [1] concerns the target T1, ENPP1 (Homo sapiens, UniProt P22413).
T1 sequence (P22413 1-925): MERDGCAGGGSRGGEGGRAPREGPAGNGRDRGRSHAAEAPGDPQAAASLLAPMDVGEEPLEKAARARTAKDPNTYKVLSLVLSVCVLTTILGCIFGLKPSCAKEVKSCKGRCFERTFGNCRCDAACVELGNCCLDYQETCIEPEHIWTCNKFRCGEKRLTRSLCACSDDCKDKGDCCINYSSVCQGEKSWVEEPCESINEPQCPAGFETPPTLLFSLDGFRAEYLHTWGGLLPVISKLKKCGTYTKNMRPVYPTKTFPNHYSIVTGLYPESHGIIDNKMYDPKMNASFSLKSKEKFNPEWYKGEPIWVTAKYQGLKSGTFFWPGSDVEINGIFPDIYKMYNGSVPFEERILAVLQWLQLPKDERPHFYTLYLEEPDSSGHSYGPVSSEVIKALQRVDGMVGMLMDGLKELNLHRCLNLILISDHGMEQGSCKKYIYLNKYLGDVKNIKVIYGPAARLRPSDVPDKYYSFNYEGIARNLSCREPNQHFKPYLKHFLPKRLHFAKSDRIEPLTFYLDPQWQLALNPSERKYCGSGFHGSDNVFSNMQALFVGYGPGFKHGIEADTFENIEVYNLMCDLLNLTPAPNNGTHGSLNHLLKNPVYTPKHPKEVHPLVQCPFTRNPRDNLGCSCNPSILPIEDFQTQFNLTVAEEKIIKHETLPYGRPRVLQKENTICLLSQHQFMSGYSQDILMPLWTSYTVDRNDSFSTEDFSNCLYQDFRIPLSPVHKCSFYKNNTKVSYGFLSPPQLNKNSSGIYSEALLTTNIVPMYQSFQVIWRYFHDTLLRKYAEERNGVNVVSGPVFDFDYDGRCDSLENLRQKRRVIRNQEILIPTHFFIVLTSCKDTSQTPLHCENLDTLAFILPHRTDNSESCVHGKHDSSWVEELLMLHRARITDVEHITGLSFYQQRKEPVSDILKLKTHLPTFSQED
Put plainly: ENPP1 enzyme inhibition assay. The note with it: for inhibition at 100 µM: read-out: ENPP1 % inhibition ± SD. Format: biochemical.

For experiment [2], the target named is T2, ENPP3 (Homo sapiens, UniProt O14638).
T2 sequence (O14638 1-875): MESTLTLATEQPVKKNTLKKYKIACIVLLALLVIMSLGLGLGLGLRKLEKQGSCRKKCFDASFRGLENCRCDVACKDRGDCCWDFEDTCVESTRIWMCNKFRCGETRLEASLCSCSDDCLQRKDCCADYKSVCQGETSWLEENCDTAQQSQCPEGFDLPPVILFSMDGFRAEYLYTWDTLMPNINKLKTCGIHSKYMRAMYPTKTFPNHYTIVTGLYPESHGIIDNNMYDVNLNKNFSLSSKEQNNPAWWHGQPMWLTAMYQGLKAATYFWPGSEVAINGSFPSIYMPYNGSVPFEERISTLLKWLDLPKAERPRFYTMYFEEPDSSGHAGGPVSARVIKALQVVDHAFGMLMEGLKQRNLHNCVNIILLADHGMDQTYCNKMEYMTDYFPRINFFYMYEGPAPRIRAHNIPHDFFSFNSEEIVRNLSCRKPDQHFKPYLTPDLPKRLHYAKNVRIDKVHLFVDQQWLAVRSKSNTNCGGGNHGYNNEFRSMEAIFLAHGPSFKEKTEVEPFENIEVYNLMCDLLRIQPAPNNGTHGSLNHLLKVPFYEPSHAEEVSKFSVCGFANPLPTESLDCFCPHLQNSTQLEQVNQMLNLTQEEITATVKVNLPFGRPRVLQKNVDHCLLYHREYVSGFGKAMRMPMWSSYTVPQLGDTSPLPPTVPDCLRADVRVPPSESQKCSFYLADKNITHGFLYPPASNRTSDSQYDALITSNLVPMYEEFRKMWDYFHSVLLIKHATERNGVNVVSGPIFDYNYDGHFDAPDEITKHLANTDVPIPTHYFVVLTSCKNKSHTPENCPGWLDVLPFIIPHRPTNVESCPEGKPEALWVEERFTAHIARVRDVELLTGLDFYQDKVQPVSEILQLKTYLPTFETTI
Put plainly: ENPP3 enzyme inhibition assay. The note with it: for inhibition at 100 µM: read-out: ENPP3 % inhibition ± SD. In kind it is biochemical.

Experiment [3] relates to MCF7 (human breast cancer cell line). Put plainly: MTT cytotoxicity assay, MCF7. Format: cell-based. The conditions noted are these: MCF7, 24 h, read-out: MCF7 (% inhibition ±SD). On the technique in general: Tetrazolium assays rely on reduction of a dye to a coloured formazan, in cell work by metabolically active cells.
The test system of experiment [4] is HEK293 (human embryonic kidney cell line). Put plainly: MTT cytotoxicity assay, HEK293. Format: cell-based. The conditions noted are these: Homo sapiens, HEK293, 24 h, read-out: HEK293 (% inhibition ±SD).

Take `CCCc1ccc(S(=O)(=O)Oc2ccc(NC(=O)c3ccccc3)cc2)cc1` [4o, 4-Benzamidophenyl 4-Propylbenzenesulfonate]: the IC50 in experiment [1] was determined as 1710 ± 40 nM; in experiment [2], 2120 ± 80 nM. Moreover, the inhibition at 100 µM in experiment [3] amounted to 63.2 ± 2.51%; in experiment [4], 12.6 ± 0.74%.

As for `O=C(Nc1ccc(OS(=O)(=O)Cc2ccccc2)cc1)c1ccccc1` [4n, 4-Benzamidophenyl Phenylmethanesulfonate], the IC50 amounted to 3960 ± 120 nM in experiment [1] and 4120 ± 50 nM in experiment [2]. Besides, the inhibition at 100 µM in experiment [3] turned out to be 7.3 ± 0.03%; in experiment [4], 5.8 ± 0.23%.

As for `COc1ccc(S(=O)(=O)Oc2ccc(NC(=O)c3ccccc3)cc2)cc1` [4m, 4-Benzamidophenyl 4-Methoxybenzenesulfonate], the 50% inhibitory concentration (IC50) in experiment [1] came out at 820 ± 50 nM. In addition, the inhibition at 100 µM in experiment [2] is 22.6 ± 2.12%; in experiment [3] it was 4.1 ± 0.01%; in experiment [4] it was 2.3 ± 1.12%.

With `Cc1ccc(C(=O)Nc2ccc(OS(=O)(=O)c3ccc(OC(F)(F)F)cc3)cc2)cc1` [4g, 4-(4-Methylbenzamido)phenyl 4-(Trifluoromethoxy)benzenesulfonate], the IC50 came out at 450 ± 70 nM in experiment [1] and 190 ± 20 nM in experiment [2]. In addition, the inhibition at 100 µM worked out at 11.7 ± 0.84% in experiment [3] and 3.2 ± 0.11% in experiment [4].

In turn, `O=C(Nc1ccc(OS(=O)(=O)c2cccc3cccnc23)cc1)c1ccccc1` [4q, 4-Benzamidophenyl Quinoline-8-sulfonate] registered an IC50 in experiment [1] of 370 ± 30 nM. For the same compound, the inhibition at 100 µM in experiment [2] is 19.5 ± 3.53%; in experiment [3], 11.2 ± 1.04%; in experiment [4] it was 4.6 ± 0.32%.

For `COc1cccc2c1C(=O)c1c(O)c3c(c(O)c1C2=O)C[C@@](O)(C(=O)CO)C[C@@H]3O[C@H]1C[C@H](N)[C@H](O)[C@H](C)O1` [doxorubicin, reference compound], the inhibition at 100 µM in experiment [3] turned out to be 88.8 ± 2.74%.

For `Cc1ccc(C(=O)Nc2ccc(OS(=O)(=O)c3ccc(C)cc3)cc2)cc1` [4a, 4-(4-Methylbenzamido)phenyl 4-Methylbenzenesulfonate], the inhibition at 100 µM is 26.2 ± 2.11% in experiment [1], 17 ± 3.24% in experiment [2], 1.1 ± 0.12% in experiment [3] and 5.3 ± 0.81% in experiment [4].

In experiment [1], `O=C(Nc1ccc(OS(=O)(=O)c2ccc(-c3ccccc3)cc2)cc1)c1ccccc1` [4p, 4-Benzamidophenyl [1,1′-Biphenyl]-4-sulfonate] had an IC50 of 1510 ± 20 nM. Moreover, the inhibition at 100 µM was 33.5 ± 1.92% in experiment [2], 8.4 ± 0.75% in experiment [3] and 4.3 ± 0.15% in experiment [4].

On to `O=C(Nc1ccc(OS(=O)(=O)c2ccc(I)cc2)cc1)c1ccccc1` [4r, 4-Benzamidophenyl 4-Iodobenzenesulfonate], for which the values for the IC50 in experiment [1] and in experiment [2] were 2010 ± 340 nM and 530 ± 190 nM, respectively. The inhibition at 100 µM is 10.2 ± 0.86% in experiment [3] and 11.3 ± 0.71% in experiment [4].

As for `Cc1ccc(C(=O)Nc2ccc(OS(=O)(=O)c3ccc(Cl)cc3)cc2)cc1` [4e, 4-(4-Methylbenzamido)phenyl 4-Chlorobenzenesulfonate], the inhibition at 100 µM in experiment [1] is 44.8 ± 1.52%; in experiment [3], 24.2 ± 1.73%; in experiment [4], 8.3 ± 0.35%. Besides, it took 820 ± 120 nM to reach half-maximal inhibition in experiment [2] (IC50).

For the compound `COc1ccc(S(=O)(=O)Oc2ccc(NC(=O)c3ccc(C)cc3)cc2)cc1` [4d, 4-(4-Methylbenzamido)phenyl 4-Methoxybenzenesulfonate], inhibition in experiment [1] was half-maximal at 180 ± 10 nM (IC50). For the same compound, the inhibition at 100 µM stood at 45.7 ± 2.35% in experiment [2], 31.5 ± 2.43% in experiment [3] and 13.1 ± 0.73% in experiment [4].

For the compound `Cc1ccc(C(=O)Nc2ccc(OS(=O)(=O)c3ccc(F)cc3)cc2)cc1` [4k, 4-(4-Methylbenzamido)phenyl 4-Fluorobenzenesulfonate], the IC50 in experiment [1] was 7610 ± 20 nM; in experiment [2] it was 370 ± 80 nM. Besides, the inhibition at 100 µM amounted to 11.2 ± 0.52% in experiment [3] and 2.1 ± 1.22% in experiment [4].

On to `CCCc1ccc(S(=O)(=O)Oc2ccc(NC(=O)c3ccc(C)cc3)cc2)cc1` [4f, 4-(4-Methylbenzamido)phenyl 4-Propylbenzenesulfonate], for which the inhibition at 100 µM in experiment [2] was 8.4 ± 3.11%; in experiment [3] it was 25.7 ± 0.92%; in experiment [4], 4.2 ± 0.12%.
